Source: patent US20020137929A1, “1 - (3-heterocyclylphenyl) isothiourea, -isourea, -guanidine and -amidine herbicidal agents” (Intellectual Property Department, BASF Aktiengesellschaft, priority 1998, published 2002)

What was measured:
GALAP (Galium) [1] = experiment: Postemergence herbicidal evaluation; format: in vivo, Galium aparine; settings: postemergence
Outline: (§1)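 Young plants, roughly two weeks from seeding, receive the active ingredient as a sprayed dispersion (acetone/water 50/50, 0.5% TWEEN 20) at 40 psi. Doses span about 0.0156 to 0.500 kg/ha. A visual score from 0 to 9 compares treated with control plants four to five weeks on.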

[2] = test system: GLXMAW (Soybean, Williams); experiment: Postemergence herbicidal evaluation; format: in vivo, Glycine max, (L.) Merr. cv Williams; settings: postemergence
Outline: as §1

[3] = test system: SAGPY (Arrowhead (Pygmaea)); experiment: Preemergence weed control under flooded paddy conditions; format: in vivo, Sagittaria pygmaea; settings: rated 3-4 weeks after treatment
Outline: (§2)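 Flooded-pot preemergence screen with silt loam and seeds in the upper 0.5 cm. Dose about 0.0313 to 0.500 kg/ha, delivered into flood water; visual 0-9 score after 3 to 4 weeks.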

MOOVA (Monochoria) = experiment: as above; format: in vivo, Monochoria vaginalis; settings: rated 3-4 weeks after treatment
Outline: as §2

ORYSAT (Rice, Tebonnet) = experiment: Preemergence herbicidal evaluation; format: in vivo, Oryza sativa, (L.) Tebonnet; settings: rated 4-5 weeks after treatment
Outline: (§3)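 Seeds were mixed with potting soil and planted on about one inch of soil, then sprayed with test compound in aqueous acetone at about 0.0156 to 0.500 kg per hectare. Plants grew under standard greenhouse care and were visually rated 0-9 against untreated controls 4-5 weeks post-treatment.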

GALAP (Galium) [4] = experiment: Preemergence herbicidal evaluation; format: in vivo, Galium aparine; settings: rated 4-5 weeks after treatment
Outline: as §3

[5] = test system: ECHORC (Watergrass (Calif.)); experiment: Preemergence weed control under flooded paddy conditions; format: in vivo, Echinochloa oryzoides; settings: rated 3-4 weeks after treatment
Outline: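 Seeds or propagules sown in silt loam kept flooded 1.5-3 cm; compounds in 50/50 acetone/water pipetted into flood water at about 0.0313 to 0.500 kg/ha. Greenhouse; visual 0-9 rating versus untreated control 3-4 weeks after treatment.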

[6] = test system: TRZAWR (Wheat, Winter, cv Riband); experiment: Postemergence herbicidal evaluation; format: in vivo, Triticum aestivum; settings: postemergence
Outline: as §1

CYPSE (Flatsedge) = experiment: Preemergence weed control under flooded paddy conditions; format: in vivo, Cyperus serotinus; settings: rated 3-4 weeks after treatment
Outline: as §2

AMBEL (Ragweed, Common) = experiment: Postemergence herbicidal evaluation; format: in vivo, Ambrosia artemisifolia; settings: postemergence
Outline: as §1

CASOB (Sicklepod) = experiment: Postemergence herbicidal evaluation; format: in vivo, Cassia obtusifolia; settings: postemergence
Outline: as §1

SETVI (Foxtail, Green) = experiment: Preemergence herbicidal evaluation; format: in vivo, Setaria viridis; settings: rated 4-5 weeks after treatment
Outline: as §3

CCN1C(=O)CSC1=Nc1cc(-n2c(=O)cc(C(F)(F)F)n(C)c2=O)c(F)cc1Cl [Compound 159, 3-{4-Chloro-5-[(3-ethyl-4-oxo-2-thiazolidinyl-idene)amino]-2-fluorophenyl}-1-methyl-6-(trifluoromethyl)-2,4(1H,3H)-pyrimidinedione]
0.0: Herbicidal rating GALAP (GALAP (Galium) [1]; rate 0.0156 kg/ha) | herbicidal effect rating, SAGPY ([3]; 0.0313 kg/ha) | herbicidal effect rating, MOOVA (MOOVA (Monochoria); 0.0313 kg/ha) | Preemergence herbicidal rating ORYSAT (ORYSAT (Rice, Tebonnet); 0.0156 kg/ha) | Preemergence herbicidal rating ORYSAT (ORYSAT (Rice, Tebonnet); 0.0313 kg/ha) | Preemergence herbicidal rating ORYSAT (ORYSAT (Rice, Tebonnet); 0.0625 kg/ha) | Preemergence herbicidal rating GALAP (GALAP (Galium) [4]; 0.0156 kg/ha) | Preemergence herbicidal rating GALAP (GALAP (Galium) [4]; 0.0313 kg/ha) | herbicidal effect rating, CYPSE (CYPSE (Flatsedge); 0.0625 kg/ha) | herbicidal effect rating, CYPSE (CYPSE (Flatsedge); 0.1250 kg/ha) | Herbicidal rating CASOB (CASOB (Sicklepod); rate 0.0156 kg/ha)
2.0: Preemergence herbicidal rating ORYSAT (ORYSAT (Rice, Tebonnet); 0.2500 kg/ha) | herbicidal effect rating, ECHORC ([5]; 0.0313 kg/ha)
5.0: Herbicidal rating GLXMAW ([2]; rate 0.0156 kg/ha) | Preemergence herbicidal rating GALAP (GALAP (Galium) [4]; 0.1250 kg/ha) | Preemergence herbicidal rating GALAP (GALAP (Galium) [4]; 0.2500 kg/ha) | herbicidal effect rating, ECHORC ([5]; 0.1250 kg/ha)
3.0: herbicidal effect rating, SAGPY ([3]; 0.0625 kg/ha) | herbicidal effect rating, SAGPY ([3]; 0.1250 kg/ha) | herbicidal effect rating, MOOVA (MOOVA (Monochoria); 0.0625 kg/ha)
3.5: Herbicidal rating TRZAWR ([6]; rate 0.0313 kg/ha) | Herbicidal rating TRZAWR ([6]; rate 0.0625 kg/ha)
4.0: Herbicidal rating GALAP (GALAP (Galium) [1]; rate 0.0625 kg/ha) | herbicidal effect rating, ECHORC ([5]; 0.0625 kg/ha) | Herbicidal rating AMBEL (AMBEL (Ragweed, Common); rate 0.0156 kg/ha)
1.0: Herbicidal rating GALAP (GALAP (Galium) [1]; rate 0.0313 kg/ha) | Preemergence herbicidal rating ORYSAT (ORYSAT (Rice, Tebonnet); 0.1250 kg/ha) | Preemergence herbicidal rating GALAP (GALAP (Galium) [4]; 0.0625 kg/ha) | Herbicidal rating CASOB (CASOB (Sicklepod); rate 0.0313 kg/ha) | Preemergence herbicidal rating SETVI (SETVI (Foxtail, Green); 0.0156 kg/ha)
5.5: Herbicidal rating GLXMAW ([2]; rate 0.0313 kg/ha)
2.5: Herbicidal rating TRZAWR ([6]; rate 0.0156 kg/ha)
7.0: Herbicidal rating GLXMAW ([2]; rate 0.0625 kg/ha) | herbicidal effect rating, ECHORC ([5]; 0.2500 kg/ha) | Herbicidal rating AMBEL (AMBEL (Ragweed, Common); rate 0.0313 kg/ha) | Herbicidal rating AMBEL (AMBEL (Ragweed, Common); rate 0.0625 kg/ha) | Herbicidal rating CASOB (CASOB (Sicklepod); rate 0.0625 kg/ha) | Preemergence herbicidal rating SETVI (SETVI (Foxtail, Green); 0.0625 kg/ha) | Preemergence herbicidal rating SETVI (SETVI (Foxtail, Green); 0.2500 kg/ha)
8.0: Preemergence herbicidal rating SETVI (SETVI (Foxtail, Green); 0.0313 kg/ha)
9.0: herbicidal effect rating, MOOVA (MOOVA (Monochoria); 0.2500 kg/ha) | Preemergence herbicidal rating SETVI (SETVI (Foxtail, Green); 0.1250 kg/ha)
6.0: herbicidal effect rating, SAGPY ([3]; 0.2500 kg/ha) | herbicidal effect rating, MOOVA (MOOVA (Monochoria); 0.1250 kg/ha)

CCOC(=O)CN1C(=O)C(OC)SC1=Nc1cc(-n2c(=O)cc(C(F)(F)F)n(C)c2=O)c(F)cc1Cl (centres unmarked) [Compound 160, Ethyl 2-{{2-chloro-5-[3,6-dihydro-3-methyl-2,6-dioxo-4-(trifluoromethyl)-1(2H)-pyrimidinyl]-4-fluorophenyl}imino}-5-methoxy-4-oxo-3-thiazolidineacetate]
5.0: Herbicidal rating GLXMAW ([2]; rate 0.0156 kg/ha) | herbicidal effect rating, SAGPY ([3]; 0.1250 kg/ha) | herbicidal effect rating, MOOVA (MOOVA (Monochoria); 0.0313 kg/ha) | Herbicidal rating TRZAWR ([6]; rate 0.0625 kg/ha)
1.0: Preemergence herbicidal rating ORYSAT (ORYSAT (Rice, Tebonnet); 0.0625 kg/ha) | Preemergence herbicidal rating ORYSAT (ORYSAT (Rice, Tebonnet); 0.1250 kg/ha) | Herbicidal rating CASOB (CASOB (Sicklepod); rate 0.0625 kg/ha) | Preemergence herbicidal rating SETVI (SETVI (Foxtail, Green); 0.0313 kg/ha)
4.0: Herbicidal rating GALAP (GALAP (Galium) [1]; rate 0.1250 kg/ha) | herbicidal effect rating, ECHORC ([5]; 0.2500 kg/ha) | Herbicidal rating TRZAWR ([6]; rate 0.0313 kg/ha) | Herbicidal rating CASOB (CASOB (Sicklepod); rate 0.1250 kg/ha)
3.0: Herbicidal rating TRZAWR ([6]; rate 0.0156 kg/ha) | herbicidal effect rating, CYPSE (CYPSE (Flatsedge); 0.0313 kg/ha) | herbicidal effect rating, CYPSE (CYPSE (Flatsedge); 0.0625 kg/ha) | herbicidal effect rating, CYPSE (CYPSE (Flatsedge); 0.1250 kg/ha) | herbicidal effect rating, CYPSE (CYPSE (Flatsedge); 0.2500 kg/ha)
7.0: Herbicidal rating GLXMAW ([2]; rate 0.0625 kg/ha) | Herbicidal rating GLXMAW ([2]; rate 0.1250 kg/ha) | herbicidal effect rating, MOOVA (MOOVA (Monochoria); 0.2500 kg/ha) | Preemergence herbicidal rating ORYSAT (ORYSAT (Rice, Tebonnet); 0.2500 kg/ha) | Preemergence herbicidal rating GALAP (GALAP (Galium) [4]; 0.2500 kg/ha) | Preemergence herbicidal rating GALAP (GALAP (Galium) [4]; 0.5000 kg/ha) | Herbicidal rating AMBEL (AMBEL (Ragweed, Common); rate 0.0156 kg/ha) | Herbicidal rating AMBEL (AMBEL (Ragweed, Common); rate 0.0313 kg/ha) | Preemergence herbicidal rating SETVI (SETVI (Foxtail, Green); 0.0625 kg/ha) | Preemergence herbicidal rating SETVI (SETVI (Foxtail, Green); 0.1250 kg/ha) | Preemergence herbicidal rating SETVI (SETVI (Foxtail, Green); 0.2500 kg/ha)
6.0: Herbicidal rating GLXMAW ([2]; rate 0.0313 kg/ha) | herbicidal effect rating, MOOVA (MOOVA (Monochoria); 0.0625 kg/ha) | herbicidal effect rating, MOOVA (MOOVA (Monochoria); 0.1250 kg/ha) | Herbicidal rating TRZAWR ([6]; rate 0.1250 kg/ha)
2.0: Herbicidal rating GALAP (GALAP (Galium) [1]; rate 0.0625 kg/ha) | herbicidal effect rating, SAGPY ([3]; 0.0625 kg/ha) | herbicidal effect rating, ECHORC ([5]; 0.1250 kg/ha)
8.0: herbicidal effect rating, SAGPY ([3]; 0.2500 kg/ha) | Preemergence herbicidal rating ORYSAT (ORYSAT (Rice, Tebonnet); 0.5000 kg/ha)
0.0: Herbicidal rating GALAP (GALAP (Galium) [1]; rate 0.0156 kg/ha) | Herbicidal rating GALAP (GALAP (Galium) [1]; rate 0.0313 kg/ha) | herbicidal effect rating, SAGPY ([3]; 0.0313 kg/ha) | Preemergence herbicidal rating ORYSAT (ORYSAT (Rice, Tebonnet); 0.0156 kg/ha) | Preemergence herbicidal rating ORYSAT (ORYSAT (Rice, Tebonnet); 0.0313 kg/ha) | Preemergence herbicidal rating GALAP (GALAP (Galium) [4]; 0.0156 kg/ha) | Preemergence herbicidal rating GALAP (GALAP (Galium) [4]; 0.0313 kg/ha) | Preemergence herbicidal rating GALAP (GALAP (Galium) [4]; 0.0625 kg/ha) | Preemergence herbicidal rating GALAP (GALAP (Galium) [4]; 0.1250 kg/ha) | herbicidal effect rating, ECHORC ([5]; 0.0313 kg/ha) | herbicidal effect rating, ECHORC ([5]; 0.0625 kg/ha) | Herbicidal rating CASOB (CASOB (Sicklepod); rate 0.0156 kg/ha) | Herbicidal rating CASOB (CASOB (Sicklepod); rate 0.0313 kg/ha) | Preemergence herbicidal rating SETVI (SETVI (Foxtail, Green); 0.0156 kg/ha)
9.0: Herbicidal rating AMBEL (AMBEL (Ragweed, Common); rate 0.0625 kg/ha) | Herbicidal rating AMBEL (AMBEL (Ragweed, Common); rate 0.1250 kg/ha) | Preemergence herbicidal rating SETVI (SETVI (Foxtail, Green); 0.5000 kg/ha)
